One data set can be described thus: Solubility. The data set is classed as physicochemical. As to conditions: dry ethanol, methanol, chloroform, dimethylformamide, dimethylsulfoxide.
In data set [1] the test system is human lung adenocarcinoma cell A549. Put plainly: Scratch test, migration of A549 (Example 4). The data set is classed as cell-based. Particulars: 4 and 100 μmol/L, 0-36 h. How it is done:
The inhibiting ability of (S)2-(4′-methyl-3′-nitrobenzoylamino)-3-phenylpropionic acid for the migration of human lung adenocarcinoma cell A549 was tested by scratch test.
A549 cells in logarithmic growth phase were plated in the 6-well plate with the density of 5×10^5/3 mL, and after 12 h, the drug was added, with 100 μL per well. The final concentrations of (S)2-(4′-methyl-3′-nitrobenzoylamino)-3-phenylpropionic acid (TCI04) were 4 and 100 μmol/L respectively. The negative control was 100 μL sterilized water with 2% DMSO and the positive control was 4, 100 μmol/L 4-methyl-3-nitrobenzoic acid (TCI01). After 36 h, the medium was removed, and after washing 3 times with PBS, 3 ml culture medium without fetal bovine serum and 100 μL drug (concentration was as above) per well were added. 6 h later, 200 μL tips were used to scratch, and after washing 4 times with PBS, 3 ml medium without fetal bovine serum per well was added. The distance of cell migration was recorded every 3 h under the inverted microscope, and photos were taken at 0 h and 36 h.

The test system of the next data set is B16 melanoma cells. In words: Artificial metastasis model of B16 mice melanoma (Example 6). The data set is classed as in vivo, C57BL/6 mouse. As to the method:
3) An metastasis model of B16 mouse melanoma is constructed by direct injection of B16 cells into tail vein in C57BL/6 mouse, and the ability of a drug for inhibiting tumor metastasis is determined by counting the number of the metastatic tumors on lung. Such a model mimics the metastatic process of cancer cells from the circulatory system to the target organ, which is more similar with the metastatic way of tumor cells in the bodies of patients with advanced cancer.
The ability of (S)2-(4′-methyl-3′-nitrobenzoylamino)-3-phenylpropionic acid for inhibiting tumor metastasis in vivo was tested by artificial metastasis model of B16 mice melanoma.
1) Mice grouping: C57BL/6 of SPF grade, 5 weeks old, 18˜22 g, 8 mice for each group, half male and half female;
2) The mother liquid of (S)2-(4′-methyl-3′-nitrobenzoylamino)-3-phenylpropionic acid for the dosage form administrated by intravenous injection was diluted to 0.8 mg/mL, 0.2 mg/mL, 0.05 mg/mL by adding sterilized water. […]
3) B16 cells in logarithmic growth phase were digested with 0.05% typsine for 1 min, and after centrifugation at 1000 rpm for 5 min, the supernatant was discarded and the cells were resuspended and counted. […]
5) After the completion of the experiment, the mice were sacrificed and the lungs were taken, the number and size of melanomas on the lungs was counted, and the weight of the lungs were weighed;

Another data set has as its system 4T1-luciferase cells. In words: In situ model of breast cancer in nude mouse, lung metastasis by in vivo imaging (Example 7). On the set-up: species or system nude mice. Particulars: 20 mg/kg and 1 mg/kg tail vein, twice a day, 21 days; P<0.01. How it is done: 4) An in situ breast cancer model is constructed by in situ inoculating nude mice with 4T1 cells which are stably transfected with Luciferase, and the number of metastatic tumors on the lung is detected by in vivo imaging system. Such a model mimics the occurrence and metastasis of breast cancer.
The ability of (S)2-(4′-methyl-3′-nitrobenzoylamino)-3-phenylpropionic acid for inhibiting tumor metastasis in vivo was tested by in situ model of breast cancer in nude mouse.
1) Mice grouping: Nude female mice of SPF grade, 5 weeks old, 18˜22 g, 8 mice for each group;
2) The mother liquid of (S)2-(4′-methyl-3′-nitrobenzoylamino)-3-phenylpropionic acid (TCI04) for the dosage form administrated by intravenous injection was diluted to 2 mg/mL, 0.1 mg/mL by adding sterilized water. The dosage for administration in mice was as follows, high dosage of 20 mg/kg; low dosage of 1 mg/kg. […]
3) 4T1-luciferase cells in logarithmic growth phase were digested with 0.05% typsine for 1 min, after centrifugation at 1000 rpm for 5 min, the supernatant was discarded and the cells were resuspended and counted. […]
5) After the completion of the administration, the mice were detected by in vivo imaging system for the condition of tumor metastasis and immediately sacrificed; the lungs alone were detected by the in vivo imaging system for the light intensity to determine the number of tumor metastasis.

The next data set relates to MDA-MB-231 cells. In words: MTT assay, proliferation of MDA-MB-231 (Example 11). Type of data set: cell-based. Particulars: Homo sapiens, 48 h. As to the method:
The half inhibitory concentration of (S)2-(4′-methyl-3′-nitrobenzoylamino)-3-phenylpropionic acid for MDA-MB-231 cells was tested by MTT assay.
2) 5 mg/mL MTT solution was prepared with sterilized PBS, filtered with 0.22 um film, and then diluted with medium to 1 mg/mL. The medium in the 96-well plate was discarded, and 100 μL 1 mg/mL MTT working solution was add, followed by continuous culturing for 5 h.
3) MTT working solution was discarded, and 150 μL DMSO was added to each well (note: to away from light), and then the plate was shaken on the horizontal shaker at 170 rpm for 10 min, followed by detecting the absorbance at 490 nm with microplate reader.

For the compound `Cc1ccc(C(=O)N[C@@H](Cc2ccccc2)C(=O)O)cc1[N+](=O)[O-]` [(S)2-(4′-methyl-3′-nitrobenzoylamino)-3-phenylpropionic acid], the “solubility in organic solvents” value in “Solubility” was “highly soluble”. For the same compound, the “inhibition of migration ability (coalescence speed of cell scratch vs negative control)” value in data set [1] is listed as “significantly inhibited”. Besides, in the data set with B16 melanoma cells (8, 2, 0.5 mg/kg tail vein, twice a day, 21 days, P<0.01), the “tumor numbers on the lungs and lung weights compared with the negative control” value is “very significant difference”. In the data set on B16 melanoma cells (tail vein administration of 0.5 mg/kg), the “inhibition of metastasis of B16 mouse melanoma cell in C57BL/6 mouse” value is reported as “significantly inhibit”. Also, the “light intensity of the whole lung vs negative control” value with 4T1-luciferase cells is recorded as “significantly weaker than the negative control”. The IC50 (as a rule, the concentration that inhibits the measured activity by half) in the data set on MDA-MB-231 cells was determined as 2450 µM.

(Values after US10512627B2, “Anti-tumor compound and the medical use thereof” (Tianjin Medical University Cancer Institute and Hospital, priority 2014, dated 2019).)
